The values that follow come from patent US8604217B2, “Compound, a process for its preparation, a pharmaceutical composition, use of a compound, a method for modulating or regulating serine/threonine kinases and a serine/threonine kinases modulating agent” (Selvita S.A., priority 2009, dated 2013).

Like-named read-outs stand apart in the source and are kept apart here.

Assay [1] concerns c-MYC. Kind of assay: In vitro inhibition of protein phosphorylation, Western blot in MV4-11 cells. Type of assay: cell-based, human. To be noted: for IC50: Homo sapiens, MV4-11, MV411 cells, read-out: calculated cellular IC50 for biomarker inhibition, c-MYC. Here is the method: (§1) The inventors have investigated the efficacy of PIM-1 kinase inhibition by compound 20 on MV4-11 cells 4 h and 24 h after the treatment. The efficacy of PIM-1 inhibition was evaluated basing on the changes in the expression and phosphorylation levels of its downstream target proteins, using Western blot (FIG. 1). Sunitinib was used as a positive control. After densitometric quantification of the obtained results, cellular IC50 was assessed (Table 6). […] PIM-1 and tubulin protein levels were assessed as controls.

Assay [2] has as its system p-4EBP1 (Ser65). The assay is described as above. Format: cell-based, human. To be noted: for IC50: Homo sapiens, MV4-11, MV411 cells, read-out: calculated cellular IC50 for biomarker inhibition, p-4EBP1 (Ser65). Here is the method:
as §1

The target in assay [3] is Rsk1(h) (Homo sapiens (Human), UniProt Q15418). Kind of assay: KinaseProfiler kinase panel. Format: biochemical.
The target of assay [4] is MRCKβ(h) (Homo sapiens (Human), UniProt Q9Y5S2). Kind of assay: KinaseProfiler kinase panel. Type of assay: biochemical.
The target of assay [5] is CaMKI(h) (Homo sapiens (Human), UniProt Q14012). The assay can be described thus: KinaseProfiler kinase panel. Format: biochemical.
In assay [6] the target is Arg(h) (Homo sapiens (Human), UniProt P42684). The assay can be described thus: KinaseProfiler kinase panel. Type of assay: biochemical.
In assay [7] the target is FGFR1(V561M)(h) (Homo sapiens (Human), UniProt P11362, V561M). The assay can be described thus: KinaseProfiler kinase panel. Format: biochemical.
Assay [8] concerns the target Tie2(Y897S)(h) (Homo sapiens (Human), UniProt Q02763, Y897S). The assay can be described thus: KinaseProfiler kinase panel. Format: biochemical.
Assay [9] deals with ErbB4(h) (Homo sapiens (Human), UniProt Q15303). Kind of assay: KinaseProfiler kinase panel. Format: biochemical.
Assay [10] deals with PKCμ(h) (Homo sapiens (Human), UniProt Q15139). Kind of assay: KinaseProfiler kinase panel. Format: biochemical.
Assay [11] deals with PASK(h) (Homo sapiens (Human), UniProt Q96RG2). Kind of assay: KinaseProfiler kinase panel. Format: biochemical.
The target of assay [12] is MSK2(h) (Homo sapiens (Human), UniProt O75676). The assay can be described thus: KinaseProfiler kinase panel. Format: biochemical.
In assay [13] the target is MARK1(h) (Homo sapiens (Human), UniProt Q9P0L2). Kind of assay: KinaseProfiler kinase panel. Format: biochemical.
For assay [14], the target named is NEK2(h) (Homo sapiens (Human), UniProt P51955). The assay can be described thus: KinaseProfiler kinase panel. Type of assay: biochemical.
Assay [15] concerns the target DAPK2(h) (Homo sapiens (Human), UniProt Q9UIK4). The assay can be described thus: KinaseProfiler kinase panel. Format: biochemical.
For assay [16], the target named is PKD2(h) (Homo sapiens (Human), UniProt Q9BZL6). Kind of assay: KinaseProfiler kinase panel. Format: biochemical.
For assay [17], the target named is Met(Y1248H)(h) (Homo sapiens (Human), UniProt P08581, Y1248H). The assay can be described thus: KinaseProfiler kinase panel. Format: biochemical.
Assay [18] deals with Tie2(R849W)(h) (Homo sapiens (Human), UniProt Q02763, R849W). Kind of assay: KinaseProfiler kinase panel. Format: biochemical.
The target of assay [19] is BrSK2(h) (Homo sapiens (Human), UniProt Q8IWQ3). Kind of assay: KinaseProfiler kinase panel. Format: biochemical.
Assay [20] deals with JAK3(h) (Homo sapiens (Human), UniProt P52333). Kind of assay: KinaseProfiler kinase panel. Type of assay: biochemical.
Assay [21] addresses MINK(h) (Homo sapiens (Human), UniProt Q8N4C8). The assay can be described thus: KinaseProfiler kinase panel. Format: biochemical.
Assay [22] concerns the target CaMKIδ(h) (Homo sapiens (Human), UniProt Q8IU85). Kind of assay: KinaseProfiler kinase panel. Type of assay: biochemical.
The target of assay [23] is Aurora-B(h) (Homo sapiens (Human), UniProt Q96GD4). Kind of assay: KinaseProfiler kinase panel. Format: biochemical.
The target of assay [24] is CLK2(h) (Homo sapiens (Human), UniProt P49760). Kind of assay: KinaseProfiler kinase panel. Type of assay: biochemical.
Assay [25] has as its target PhKγ2(h) (Homo sapiens (Human), UniProt P15735). Kind of assay: KinaseProfiler kinase panel. Format: biochemical.
Assay [26] concerns the target Rsk4(h) (Homo sapiens (Human), UniProt Q9UK32). The assay can be described thus: KinaseProfiler kinase panel. Format: biochemical.
Assay [27] concerns the target Rse(h) (Homo sapiens (Human), UniProt Q06418). The assay can be described thus: KinaseProfiler kinase panel. Format: biochemical.
Assay [28] has as its target CDK3/cyclinE(h) (Homo sapiens (Human), UniProt Q00526). Kind of assay: KinaseProfiler kinase panel. Type of assay: biochemical.
Assay [29] deals with WNK2(h) (Homo sapiens (Human), UniProt Q9Y3S1). The assay can be described thus: KinaseProfiler kinase panel. Format: biochemical.
The target in assay [30] is PKCε(h) (Homo sapiens (Human), UniProt Q02156). The assay can be described thus: KinaseProfiler kinase panel. Format: biochemical.
Assay [31] deals with Met(D1246N)(h) (Homo sapiens (Human), UniProt P08581, D1246N). Kind of assay: KinaseProfiler kinase panel. Type of assay: biochemical.
Assay [32] has as its target cKit(V560G)(h) (Homo sapiens (Human), UniProt P10721, V560G). Kind of assay: KinaseProfiler kinase panel. Format: biochemical.
In assay [33] the target is Arg(m) (Mus musculus (Mouse), UniProt Q4JIM5). The assay can be described thus: KinaseProfiler kinase panel. Format: biochemical.
Assay [34] has as its target Abl (Q252H) (h) (Homo sapiens (Human), UniProt P00519, Q252H). The assay can be described thus: KinaseProfiler kinase panel. Format: biochemical.
For assay [35], the target named is IGF-1R(h), activated (Homo sapiens (Human), UniProt P08069). The assay can be described thus: KinaseProfiler kinase panel. Format: biochemical.

MRCKβ(h), sequence (Q9Y5S2 whole entry): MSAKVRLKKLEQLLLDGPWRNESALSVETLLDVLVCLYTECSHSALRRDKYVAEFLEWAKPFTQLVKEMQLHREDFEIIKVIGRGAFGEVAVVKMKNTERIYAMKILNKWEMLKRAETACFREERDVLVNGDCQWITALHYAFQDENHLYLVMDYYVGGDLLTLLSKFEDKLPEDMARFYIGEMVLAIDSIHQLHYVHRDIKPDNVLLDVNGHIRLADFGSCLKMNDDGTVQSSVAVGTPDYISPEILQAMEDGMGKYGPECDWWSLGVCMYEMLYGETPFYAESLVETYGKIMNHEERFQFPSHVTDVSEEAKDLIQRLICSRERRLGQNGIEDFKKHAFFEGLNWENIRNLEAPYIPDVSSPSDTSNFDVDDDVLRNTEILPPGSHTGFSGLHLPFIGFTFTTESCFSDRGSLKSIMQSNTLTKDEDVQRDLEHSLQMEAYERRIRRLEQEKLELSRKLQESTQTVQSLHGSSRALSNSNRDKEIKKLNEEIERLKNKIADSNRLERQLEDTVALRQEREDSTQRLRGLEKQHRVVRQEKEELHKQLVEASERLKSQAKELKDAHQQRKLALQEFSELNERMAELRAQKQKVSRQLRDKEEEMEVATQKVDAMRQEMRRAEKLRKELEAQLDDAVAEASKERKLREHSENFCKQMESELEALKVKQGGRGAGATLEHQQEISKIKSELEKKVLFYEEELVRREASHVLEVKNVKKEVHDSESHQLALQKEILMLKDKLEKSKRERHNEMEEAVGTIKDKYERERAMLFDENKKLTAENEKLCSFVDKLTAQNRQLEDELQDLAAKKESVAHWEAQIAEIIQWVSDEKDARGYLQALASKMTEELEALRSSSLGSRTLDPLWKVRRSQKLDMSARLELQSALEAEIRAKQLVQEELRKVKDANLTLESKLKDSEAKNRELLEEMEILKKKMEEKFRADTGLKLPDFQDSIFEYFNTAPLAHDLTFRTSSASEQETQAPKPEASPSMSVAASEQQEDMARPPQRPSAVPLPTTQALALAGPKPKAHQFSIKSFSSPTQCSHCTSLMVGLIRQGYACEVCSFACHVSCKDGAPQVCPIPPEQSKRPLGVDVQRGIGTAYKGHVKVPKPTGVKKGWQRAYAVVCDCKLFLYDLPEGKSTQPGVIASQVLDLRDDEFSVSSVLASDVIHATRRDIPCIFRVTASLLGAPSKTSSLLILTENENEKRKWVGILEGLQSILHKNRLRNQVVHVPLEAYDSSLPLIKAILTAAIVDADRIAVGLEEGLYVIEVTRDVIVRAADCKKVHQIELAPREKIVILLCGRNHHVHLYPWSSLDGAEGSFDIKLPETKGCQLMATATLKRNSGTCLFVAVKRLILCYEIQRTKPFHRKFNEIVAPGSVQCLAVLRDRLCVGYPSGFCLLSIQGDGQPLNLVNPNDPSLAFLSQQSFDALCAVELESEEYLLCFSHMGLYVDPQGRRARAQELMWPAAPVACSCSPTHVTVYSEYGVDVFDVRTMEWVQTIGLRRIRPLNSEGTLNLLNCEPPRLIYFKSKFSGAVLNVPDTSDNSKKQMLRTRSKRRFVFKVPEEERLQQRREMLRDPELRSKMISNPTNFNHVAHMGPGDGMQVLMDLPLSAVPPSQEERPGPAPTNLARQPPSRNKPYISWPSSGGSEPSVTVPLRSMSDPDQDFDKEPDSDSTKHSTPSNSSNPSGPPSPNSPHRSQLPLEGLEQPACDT
Rsk1(h), sequence (Q15418 whole entry): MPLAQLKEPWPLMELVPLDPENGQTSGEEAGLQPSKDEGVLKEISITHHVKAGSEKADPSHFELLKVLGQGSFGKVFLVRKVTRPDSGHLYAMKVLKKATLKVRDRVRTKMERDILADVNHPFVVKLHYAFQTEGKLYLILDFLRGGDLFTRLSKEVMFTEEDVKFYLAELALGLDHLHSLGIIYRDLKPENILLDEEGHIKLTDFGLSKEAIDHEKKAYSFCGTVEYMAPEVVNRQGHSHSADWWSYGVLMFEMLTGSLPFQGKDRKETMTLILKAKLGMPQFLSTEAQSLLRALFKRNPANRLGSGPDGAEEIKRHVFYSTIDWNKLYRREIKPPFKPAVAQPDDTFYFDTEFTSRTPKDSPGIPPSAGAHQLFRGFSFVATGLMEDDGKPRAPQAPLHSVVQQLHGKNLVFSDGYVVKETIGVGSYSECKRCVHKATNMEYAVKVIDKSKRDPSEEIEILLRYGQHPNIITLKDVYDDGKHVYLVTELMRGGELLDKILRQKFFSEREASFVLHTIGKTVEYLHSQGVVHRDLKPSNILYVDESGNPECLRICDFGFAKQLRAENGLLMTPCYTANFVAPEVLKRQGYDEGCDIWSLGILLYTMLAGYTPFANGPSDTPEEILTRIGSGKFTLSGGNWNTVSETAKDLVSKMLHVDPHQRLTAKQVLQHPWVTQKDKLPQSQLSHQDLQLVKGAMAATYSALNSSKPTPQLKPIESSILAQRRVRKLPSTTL
PASK(h), sequence (Q96RG2 whole entry): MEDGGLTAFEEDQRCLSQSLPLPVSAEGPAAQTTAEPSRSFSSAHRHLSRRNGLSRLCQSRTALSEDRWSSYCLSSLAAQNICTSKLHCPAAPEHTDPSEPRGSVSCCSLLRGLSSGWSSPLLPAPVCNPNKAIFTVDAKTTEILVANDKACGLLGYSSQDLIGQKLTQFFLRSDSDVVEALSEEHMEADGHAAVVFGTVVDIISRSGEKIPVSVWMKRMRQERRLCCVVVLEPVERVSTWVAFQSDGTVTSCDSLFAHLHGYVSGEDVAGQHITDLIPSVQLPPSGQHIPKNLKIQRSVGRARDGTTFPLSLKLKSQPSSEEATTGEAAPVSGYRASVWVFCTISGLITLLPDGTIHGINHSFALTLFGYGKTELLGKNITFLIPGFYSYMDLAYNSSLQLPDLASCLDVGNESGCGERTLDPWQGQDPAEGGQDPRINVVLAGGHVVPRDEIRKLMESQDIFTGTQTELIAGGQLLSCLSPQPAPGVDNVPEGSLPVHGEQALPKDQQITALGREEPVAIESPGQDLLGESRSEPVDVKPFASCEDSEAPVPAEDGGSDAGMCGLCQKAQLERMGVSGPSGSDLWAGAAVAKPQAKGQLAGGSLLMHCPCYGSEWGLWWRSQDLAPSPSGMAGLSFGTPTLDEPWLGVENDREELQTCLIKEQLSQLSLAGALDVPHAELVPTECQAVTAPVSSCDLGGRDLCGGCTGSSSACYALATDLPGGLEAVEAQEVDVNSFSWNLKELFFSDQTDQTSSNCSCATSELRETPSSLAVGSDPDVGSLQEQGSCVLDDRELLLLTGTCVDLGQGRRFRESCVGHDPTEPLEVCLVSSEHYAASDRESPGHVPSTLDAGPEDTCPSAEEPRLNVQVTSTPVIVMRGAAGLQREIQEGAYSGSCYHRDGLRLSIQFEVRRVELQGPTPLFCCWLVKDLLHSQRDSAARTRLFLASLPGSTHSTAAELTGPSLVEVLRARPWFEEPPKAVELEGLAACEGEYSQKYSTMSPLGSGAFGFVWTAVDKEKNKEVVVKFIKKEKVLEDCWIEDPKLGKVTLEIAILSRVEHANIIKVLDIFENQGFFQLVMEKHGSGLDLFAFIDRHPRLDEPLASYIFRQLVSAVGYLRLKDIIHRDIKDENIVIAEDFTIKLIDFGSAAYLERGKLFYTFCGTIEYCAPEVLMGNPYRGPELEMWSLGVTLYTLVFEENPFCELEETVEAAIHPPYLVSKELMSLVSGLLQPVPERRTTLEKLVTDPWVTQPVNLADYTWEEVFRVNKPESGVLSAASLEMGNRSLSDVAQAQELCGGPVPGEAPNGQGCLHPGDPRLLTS
Arg(m), sequence (Q4JIM5 whole entry): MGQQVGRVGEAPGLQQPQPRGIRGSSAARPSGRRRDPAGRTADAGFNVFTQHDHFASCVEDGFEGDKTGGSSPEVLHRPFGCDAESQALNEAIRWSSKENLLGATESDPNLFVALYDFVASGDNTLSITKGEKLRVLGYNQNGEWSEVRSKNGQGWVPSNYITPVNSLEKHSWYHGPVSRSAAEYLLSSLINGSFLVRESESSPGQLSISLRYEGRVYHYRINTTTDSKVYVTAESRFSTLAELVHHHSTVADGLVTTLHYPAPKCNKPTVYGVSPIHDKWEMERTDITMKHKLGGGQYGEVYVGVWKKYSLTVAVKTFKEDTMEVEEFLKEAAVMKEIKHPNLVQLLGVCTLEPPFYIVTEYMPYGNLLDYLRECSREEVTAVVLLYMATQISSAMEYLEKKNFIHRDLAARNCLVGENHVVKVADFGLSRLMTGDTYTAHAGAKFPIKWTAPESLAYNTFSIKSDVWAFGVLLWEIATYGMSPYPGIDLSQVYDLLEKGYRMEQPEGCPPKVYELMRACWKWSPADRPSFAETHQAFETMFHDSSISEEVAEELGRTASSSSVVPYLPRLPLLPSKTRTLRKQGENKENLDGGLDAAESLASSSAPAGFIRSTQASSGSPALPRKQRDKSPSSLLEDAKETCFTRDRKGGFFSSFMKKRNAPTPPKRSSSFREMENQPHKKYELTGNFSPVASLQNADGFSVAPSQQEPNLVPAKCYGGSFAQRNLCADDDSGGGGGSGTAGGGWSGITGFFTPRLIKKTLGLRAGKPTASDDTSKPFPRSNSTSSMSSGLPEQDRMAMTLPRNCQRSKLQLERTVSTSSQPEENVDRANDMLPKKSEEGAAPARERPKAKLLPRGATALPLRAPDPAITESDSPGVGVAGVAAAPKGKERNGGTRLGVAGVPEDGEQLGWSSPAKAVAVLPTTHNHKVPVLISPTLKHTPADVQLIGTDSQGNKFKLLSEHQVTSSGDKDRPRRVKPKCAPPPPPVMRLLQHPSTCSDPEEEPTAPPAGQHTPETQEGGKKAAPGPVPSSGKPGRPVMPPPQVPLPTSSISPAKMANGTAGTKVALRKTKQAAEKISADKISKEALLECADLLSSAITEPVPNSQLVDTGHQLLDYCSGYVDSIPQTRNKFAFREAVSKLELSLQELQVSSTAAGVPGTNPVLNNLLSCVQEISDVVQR

For `Brc1c(Br)c(Br)c2[nH]c(N3CCNCC3)nc2c1Br` [Compound 20, 4,5,6,7-tetrabromo-2-(piperazin-1-yl)-1H-benzo[d]imidazole], the IC50 in assay [1] (4 h treatment) was 890 nM; in assay [1] (24 h treatment), 2030 nM; in assay [2] (4 h treatment) it was 3130 nM; in assay [2] (24 h treatment), 1120 nM. Moreover, the “inhibition of c-MYC (Western blot)” value in assay [1] (MV4-11 cells, after 4 h and 24 h) is “dose dependent inhibition”. Also, the “inhibition of p-4EBP1(Ser65) (Western blot)” value in assay [2] (MV4-11 cells, 4 h and 24 h) is “dose- and time-dependent inhibition”.

Regarding `CCn1c(N2CCNCC2)nc2c(Br)c(Br)c(Br)c(Br)c21` [Compound 416, 4,5,6,7-tetrabromo-1-ethyl-2-(piperazin-1-yl)-1H-benzo[d]imidazole], the remaining activity at 1 µM in assay [3] amounted to 56%; in [4], 113%; in assay [5], 89%; in [6] it was 119%; in assay [7], 69%; in assay [8] it was 91%. In addition, the remaining activity at 1 µM in assay [9] came out at 89%; in assay [10], 30%; in [11] it was 28%; in assay [12], 16%; in [13], 91%; in assay [14], 91%. Moreover, the remaining activity at 1 µM in [15] worked out at 92%; in assay [16], 58%; in assay [17], 70%; in assay [18], 101%; in assay [19], 91%; in assay [20], 74%. Further, the remaining activity at 1 µM was 87% in assay [21]; 94% in assay [22]; 80% in assay [23]; 2% in assay [24]; 88% in [25]; 89% in assay [26]. Besides, the remaining activity at 1 µM in assay [27] stood at 105%; in [28], 16%; in assay [29] it was 102%; in assay [30] it was 104%; in assay [31] it was 74%; in assay [32] it was 35%. Moreover, the remaining activity at 1 µM in assay [33] was 96%; in assay [34], 98%; in [35], 87%.
